The target in this experiment is human MRGPRD (Homo sapiens, UniProt Q8TDS7). Put plainly: MRGPRD antagonist activity, IP-One HTRF assay in CHO cells stably expressing human MRGPRD (versus 100 μM β-Alanine agonist). In kind it is cell-based. How it is done:
Chinese Hamster Ovary (CHO) cells stably expressing human MRGPRD (Eurofins, San Diego CA) were plated in a 384-well plate at 20,000 cells per well in 12 μL of Optimem (Fisher Scientific 11-058-021). Plates were kept in the incubator at 37° C. overnight. Antagonists were solubilized at a concentration of 10 mM in DMSO, and the agonists were solubilized to stock concentrations of either 50 mM in H2O (β-Alanine) or 10 mM in DMSO (all others) and then diluted in assay buffer (final concentrations of 5.7 mM Tris-HCl, 43 mM NaCl, 50 mM LiCl, pH=8). The concentration of DMSO was normalized across the plate. Antagonists were added to the plate using a Tecan D300 Digital Dispenser at nanoliter/picoliter volumes and 2 μL of agonists in assay buffer were added to each well for a final assay volume of 14 μL. Plates were covered and incubated for 1 h at 37° C. and then for 1 h at room temperature. IP-1 standards and HTRF detection reagents were added according to an IP-One—Gq Kit purchased from Cisbio (part number 621PAPEJ) and incubated in the dark for 1 h at room temperature. Assay plates were read on either a Molecular Devices SpectraMax iD5 plate reader or a BMG ClarioStar plate reader. The HTRF ratio was calculated form the raw data and graphed using GraphPad Prism to calculate IC50 values. Data are expressed as average IC50 values and average percent antagonism calculated as a percent of the maximum efficacy response. For these studies, the variability of the data was assessed by determining the standard error of mean (SEM).
The activity ranges are denoted as follows: “+++++” denotes antagonist activity<100 nM; “++++” denotes antagonist activity between 100 and 500 nM; “+++” denotes activity between 500 and 1000 nM; “++” denotes activity between 1000 and 3000 nM; and “+” denotes activity>3000 nM.

A value given as a limit tells only on which side of the number the result lay.

Sequence of human MRGPRD (Q8TDS7 whole entry): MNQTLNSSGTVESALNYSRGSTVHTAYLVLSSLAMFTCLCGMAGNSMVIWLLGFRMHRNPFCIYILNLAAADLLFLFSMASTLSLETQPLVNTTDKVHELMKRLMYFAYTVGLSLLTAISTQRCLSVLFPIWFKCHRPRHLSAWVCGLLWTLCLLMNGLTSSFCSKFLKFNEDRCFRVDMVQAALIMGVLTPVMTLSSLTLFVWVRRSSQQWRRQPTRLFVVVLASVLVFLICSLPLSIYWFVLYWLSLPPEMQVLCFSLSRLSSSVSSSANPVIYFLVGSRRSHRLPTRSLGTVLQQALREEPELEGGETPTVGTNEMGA

As to `CCn1nc(C)c(-c2ccc(-n3nnc(C(=O)Nc4ccncc4)c3C3CC3)cc2)c1C` [Compound 7-14], the IC50 was below 100 nM.
With `Cc1cc(C#N)ccc1-c1ccc(-n2nnc(C(=O)Nc3ccncc3)c2C2CC2)cc1` [Compound 7-15] the figure was below 100 nM; with `Cc1nn(C)c(F)c1-c1ccc(-n2nnc(C(=O)Nc3ccncc3)c2C2CC2)cc1` [Compound 7-16], below 100 nM.
Regarding `Cc1nn(CC(F)(F)F)c(C)c1-c1ccc(-n2nnc(C(=O)Nc3ccncc3)c2C2CC2)cc1` [Compound 7-17], the IC50 was below 100 nM.
Under `Cc1nn2ccccc2c1-c1ccc(-n2nnc(C(=O)Nc3ccncc3)c2C2CC2)cc1` [Compound 7-18] stands below 100 nM; under `Cc1cc(NC(=O)c2nnn(-c3ccc(-c4cnn(Cc5ccccc5)c4)cc3)c2C2CC2)ccn1` [Compound 7-19], below 100 nM; under `O=C(Nc1ccncc1)c1nnn(-c2ccc(-c3cnn(Cc4ccccc4)c3)cc2)c1C1CC1` [Compound 7-20], below 100 nM.
Under `Cc1cc(NC(=O)c2nnn(-c3ccc(-c4ccccc4)cc3F)c2C2CC2)ccn1` [Compound 7-21] stands 100 to 500 nM; under `N#Cc1ccc(-c2ccc(-n3nnc(C(=O)Nc4ccncc4)c3C3CC3)cc2)cc1F` [Compound 7-22], 100 to 500 nM.
Under `N#CCc1ccc(-c2ccc(-n3nnc(C(=O)Nc4ccncc4)c3C3CC3)cc2)cc1` [Compound 7-23] stands 100 to 500 nM.
`COc1cc(C#N)ccc1-c1ccc(-n2nnc(C(=O)Nc3ccncc3)c2C2CC2)cc1` [Compound 7-24] yielded an IC50 of 100 to 500 nM.
In turn, `O=C(Nc1ccncc1)c1nnn(-c2ccc(-c3cnn4c3CCC4)cc2)c1C1CC1` [Compound 7-25] showed an IC50 of 100 to 500 nM.
`Cc1c(-c2ccc(-n3nnc(C(=O)Nc4ccncc4)c3C3CC3)cc2)cnn1-c1ccccc1` [Compound 7-26]: the IC50 is 100 to 500 nM.
With `COc1ccc(-c2ccc(-n3nnc(C(=O)Nc4ccncc4)c3C3CC3)cc2)cc1` [Compound 7-27] the figure was 100 to 500 nM; with `O=C(Nc1ccncc1)c1nnn(-c2ccc(-c3ccc(C(F)F)cc3)cc2)c1C1CC1` [Compound 7-28], 100 to 500 nM.
Under `O=C(Nc1ccncc1)c1nnn(-c2ccc(-c3cnn(Cc4cccs4)c3)cc2)c1C1CC1` [Compound 7-29] stands 100 to 500 nM; under `N#CCc1cccc(-c2ccc(-n3nnc(C(=O)Nc4ccncc4)c3C3CC3)cc2)c1` [Compound 7-30], 100 to 500 nM.
With `Cc1nn2cccnc2c1-c1ccc(-n2nnc(C(=O)Nc3ccncc3)c2C2CC2)cc1` [Compound 7-31] the figure was 100 to 500 nM.
For the compound `O=C(Nc1ccncc1)c1nnn(-c2ccc(-c3ccoc3)cc2)c1C1CC1` [Compound 7-32], the half-maximal inhibitory concentration (IC50) lay within 100 to 500 nM.
With `Cc1nn(C)c(C)c1-c1ccc(-n2nnc(C(=O)Nc3ccncc3)c2C2CC2)cc1` [Compound 7-33] the figure was 100 to 500 nM; with `COc1ccc(-c2ccc(-n3nnc(C(=O)Nc4ccncc4)c3C3CC3)cc2)c(C)c1` [Compound 7-34], 100 to 500 nM.
In the case of `COc1ccc(-c2ccc(-n3nnc(C(=O)Nc4ccncc4)c3C3CC3)cc2)c(F)c1` [Compound 7-35], the IC50 lay in the range of 100 to 500 nM.
With `CN(C)c1cccc(-c2ccc(-n3nnc(C(=O)Nc4ccncc4)c3C3CC3)cc2)c1` [Compound 7-36] the figure was 100 to 500 nM.
Under `CC(C)c1cccc(-c2ccc(-n3nnc(C(=O)Nc4ccncc4)c3C3CC3)cc2)c1` [Compound 7-37] stands 100 to 500 nM.
In the case of `Cc1cc(NC(=O)c2nnn(-c3ccc(-c4ccc(C#N)nc4)cc3)c2C2CC2)ccn1` [Compound 7-38], the IC50 was 100 to 500 nM.
With `N#Cc1ccc(-c2ccc(-n3nnc(C(=O)Nc4ccncc4)c3C3CC3)cc2)cc1` [Compound 7-39] the figure was 100 to 500 nM; with `Cc1noc(C)c1-c1ccc(-n2nnc(C(=O)Nc3ccncc3)c2C2CC2)cc1` [Compound 7-40], 100 to 500 nM; with `O=C(Nc1ccncc1)c1nnn(-c2ccc(-c3cc[nH]n3)cc2)c1C1CC1` [Compound 7-41], 100 to 500 nM.
With `CC(=O)c1ccc(-c2ccc(-n3nnc(C(=O)Nc4ccncc4)c3C3CC3)cc2)c(C)c1` [Compound 7-42] the figure was 100 to 500 nM; with `CN(C)S(=O)(=O)n1ccc(-c2ccc(-n3nnc(C(=O)Nc4ccncc4)c3C3CC3)cc2)n1` [Compound 7-43], 100 to 500 nM.
With `Cc1ccc(-c2ccc(-n3nnc(C(=O)Nc4ccncc4)c3C3CC3)cc2)cc1` [Compound 7-44] the figure was 100 to 500 nM; with `Cc1oncc1-c1ccc(-n2nnc(C(=O)Nc3ccncc3)c2C2CC2)cc1` [Compound 7-45], 100 to 500 nM.
For the compound `COCc1ccc(-c2ccc(-n3nnc(C(=O)Nc4ccncc4)c3C3CC3)cc2)cc1` [Compound 7-46], the half-maximal inhibitory concentration (IC50) is 100 to 500 nM.
With `Cc1c(-c2ccc(-n3nnc(C(=O)Nc4ccncc4)c3C3CC3)cc2)c(C(F)(F)F)nn1C` [Compound 7-47] the figure was 100 to 500 nM; with `COc1cc(C#N)ccc1-c1ccc(-n2nnc(C(=O)NCc3ccc(C)nc3)c2C2CC2)cc1` [Compound 7-48], 100 to 500 nM.
Under `CC(=O)c1ccc(-c2ccc(-n3nnc(C(=O)Nc4ccncc4)c3C3CC3)cc2)cc1` [Compound 7-49] stands 100 to 500 nM.
Under `Cc1c(-c2ccc(-n3nnc(C(=O)Nc4ccncc4)c3C3CC3)cc2)cnn1C` [Compound 7-50] stands 100 to 500 nM; under `Cc1cc(NC(=O)c2nnn(-c3ccc(-c4ccc(C#N)cc4C)cc3)c2C2CC2)ccn1` [Compound 7-52], 100 to 500 nM; under `Cc1cc(NC(=O)c2nnn(-c3ccc(-c4ccc(C#N)cc4)cc3OC(F)(F)F)c2C2CC2)ccn1` [Compound 7-53], 100 to 500 nM.
The compound `N#Cc1ccc(-c2ccc(-n3nnc(C(=O)Nc4ccncc4)c3C3CC3)cc2)c(F)c1` [Compound 7-54] returned a 50% inhibitory concentration (IC50) of 100 to 500 nM.
Under `Cn1ccc(-c2ccc(-n3nnc(C(=O)Nc4ccncc4)c3C3CC3)cc2)c1` [Compound 7-55] stands 100 to 500 nM.
Under `O=C(Nc1ccncc1)c1nnn(-c2ccc(-c3cccc(C4CC4)c3)cc2)c1C1CC1` [Compound 7-56] stands 100 to 500 nM; under `Cc1nocc1-c1ccc(-n2nnc(C(=O)Nc3ccncc3)c2C2CC2)cc1` [Compound 7-57], 100 to 500 nM; under `O=C(Nc1ccncc1)c1nnn(-c2ccc(-c3ccc(O)cc3)cc2)c1C1CC1` [Compound 7-58], 100 to 500 nM.
With `O=C(Nc1ccncc1)c1nnn(-c2ccc(-c3ccc(CC(F)(F)F)cc3)cc2)c1C1CC1` [Compound 7-59] the figure was 100 to 500 nM; with `Cc1cc(-c2ccc(-n3nnc(C(=O)Nc4ccncc4)c3C3CC3)cc2)ccc1C#N` [Compound 7-60], 100 to 500 nM.
In the case of `Cc1cc(NC(=O)c2nnn(-c3ccc(-c4ccc(C#N)cc4)cc3)c2C2CC2)ccn1` [Compound 7-61], the IC50 was in the range of 100 to 500 nM.
With `O=C(Nc1ccncc1)c1nnn(-c2ccc(-c3cnn(C4CCC4)c3)cc2)c1C1CC1` [Compound 7-62] the figure was 100 to 500 nM; with `O=C(Nc1ccncc1)c1nnn(-c2ccc(-c3cnn(C4CCCC4)c3)cc2)c1C1CC1` [Compound 7-63], 100 to 500 nM; with `O=C(Nc1ccncc1)c1nnn(-c2ccc(-c3ccc4c(c3)CCC4)cc2)c1C1CC1` [Compound 7-64], 100 to 500 nM.
With `O=C(Nc1ccncc1)c1nnn(-c2ccc(-c3ccc(F)cc3)cc2)c1C1CC1` [Compound 7-65] the figure was 100 to 500 nM; with `O=C(Nc1ccncc1)c1nnn(-c2ccc(-c3ccc(C(F)(F)F)cc3)cc2)c1C1CC1` [Compound 7-66], 100 to 500 nM.
Under `CC(C)C(=O)c1cccc(-c2ccc(-n3nnc(C(=O)Nc4ccncc4)c3C3CC3)cc2)c1` [Compound 7-67] stands 100 to 500 nM; under `Cn1nc(-c2ccccc2)cc1-c1ccc(-n2nnc(C(=O)Nc3ccncc3)c2C2CC2)cc1` [Compound 7-68], 100 to 500 nM.
Consider `O=C(Nc1ccncc1)c1nnn(-c2ccc(-c3ccc(CO)cc3)cc2)c1C1CC1` [Compound 7-69], for which the IC50 lay within 100 to 500 nM.
Under `COc1cc(-c2ccc(-n3nnc(C(=O)Nc4ccncc4)c3C3CC3)cc2)ccc1C#N` [Compound 7-70] stands 100 to 500 nM.
Under `CS(=O)(=O)c1cccc(-c2ccc(-n3nnc(C(=O)Nc4ccncc4)c3C3CC3)cc2)c1` [Compound 7-71] stands 100 to 500 nM; under `Cc1nn(C)cc1-c1ccc(-n2nnc(C(=O)Nc3ccncc3)c2C2CC2)cc1` [Compound 7-72], 100 to 500 nM.
With `Cc1cnn(C)c1-c1ccc(-n2nnc(C(=O)Nc3ccncc3)c2C2CC2)cc1` [Compound 7-73] the figure was 100 to 500 nM; with `CC(C)C(=O)c1ccc(-c2ccc(-n3nnc(C(=O)Nc4ccncc4)c3C3CC3)cc2)cc1` [Compound 7-74], 100 to 500 nM.
In turn, `CC(=O)c1ccc(-c2ccc(-n3nnc(C(=O)Nc4ccncc4)c3C3CC3)cc2)c(F)c1` [Compound 7-75] gave an IC50 of 100 to 500 nM.
As for `Cc1cc(NC(=O)c2nnn(-c3ccc(-c4ccccc4)cc3)c2C2CC2)ccn1` [Compound 7-76], the IC50 lay in the range of 100 to 500 nM.

What is called IC50 is the midpoint of a concentration-inhibition curve. A high value points to a need for much substance.

These data come from patent US20260001871A1, “TRIAZOLE DERIVATIVES AS MODULATORS OF MAS-RELATED G-PROTEIN RECEPTOR D” (ESCIENT PHARMACEUTICALS, INC., priority 2022, published 2026).
